The assay addresses T1, BcXyl (β-xylosidase, anthocyanin-β-glycosidase) (Brunfelsia pauciflora, UniProt A0A6G5NV63).
T1 construct: gene xyl; native purification from stage 2 petals (ammonium sulfate, DEAE, CM); about 72 kDa on SDS-PAGE; cDNA codes for 786 aa with predicted signal peptide 1-27; MS/MS peptides AVSNNFATLMR, LPMTWYPQSYADK, VTQQDLDDTFNPPFK, HYTAYDIDDWK, YEWWSEALHGISYTGPGVK
T1 sequence (A0A6G5NV63 28-785 limits assumed): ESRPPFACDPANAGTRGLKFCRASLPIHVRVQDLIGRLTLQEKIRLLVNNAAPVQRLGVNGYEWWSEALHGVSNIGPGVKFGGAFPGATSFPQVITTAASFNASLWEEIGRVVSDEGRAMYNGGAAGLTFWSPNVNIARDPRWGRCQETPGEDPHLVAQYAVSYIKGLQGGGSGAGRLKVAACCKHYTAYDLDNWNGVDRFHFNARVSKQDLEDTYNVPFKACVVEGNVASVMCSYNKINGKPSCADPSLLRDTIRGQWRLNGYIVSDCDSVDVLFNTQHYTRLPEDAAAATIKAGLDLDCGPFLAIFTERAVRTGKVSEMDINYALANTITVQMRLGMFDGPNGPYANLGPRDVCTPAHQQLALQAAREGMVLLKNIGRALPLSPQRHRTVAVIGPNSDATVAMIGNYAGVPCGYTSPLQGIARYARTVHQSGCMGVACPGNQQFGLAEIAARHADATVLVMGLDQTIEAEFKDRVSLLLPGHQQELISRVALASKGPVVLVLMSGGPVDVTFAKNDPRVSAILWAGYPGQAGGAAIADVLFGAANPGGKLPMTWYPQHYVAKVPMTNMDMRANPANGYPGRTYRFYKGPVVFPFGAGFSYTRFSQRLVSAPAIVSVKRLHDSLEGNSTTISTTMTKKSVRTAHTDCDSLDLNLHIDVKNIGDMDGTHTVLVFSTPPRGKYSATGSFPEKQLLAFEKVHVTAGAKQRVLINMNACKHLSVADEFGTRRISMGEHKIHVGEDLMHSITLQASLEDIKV
The experiment in a line: p-nitrophenol release at […] nm. Format: biochemical. The conditions noted are these: read-out: Residual Activity (%).

As to `O=C(O)[C@H](O)[C@@H](O)[C@H](O)[C@H](O)CO` [D-gluconic acid], the remaining activity at 1000 µM came to 13.2 ± 0.69%.
